Experimental data as given in patent US10150793B2, “Antagonists of CB1 receptor” (INSERM (Institut National de la Santé et de la Recherche …, priority 2011, dated 2018).
Entries after “also recorded” stand apart in the source; their conditions may differ.

Key:
[1] = tested on: CHO cells; assay: Study of metabolism in vitro in CHO cells, steroids in culture medium by GC/MS; conditions: CHO cells
Description: (§1) Plasma, brain and culture medium levels of pregnenolone (5-Pregnen-3β-ol-20-one), allopregnanolone (3α-hydroxy-5α-pregnan-20-one), epiallopregnanolone (3β-hydroxy-5α-pregnan-ol-20-one), testosterone, and 5α dihydrotestosterone were determined by GC/MS according to the of estraction, purification and quantification protocol described previously (George O, et al., Biol Psychiatry. 2010 68: 956-63, Vallee M, et al., Anal Biochem. 2000, 287:153-66).
The CHO-K1 cell line (#CCL-61, ATCC-LGC, USA) derived as a subclone from the parental CHO cell line initiated from a biopsy of an adult Chinese hamster ovary was used. The CHO-K1 cells were seeded on 24-well plates (#353047, BD Biosciences, USA) to the appropriate concentration (25×10^4 cells/well) in fresh, antibiotic-free medium constituted by 90% DMEM-Glutamax; (#31966-21, Life technologies, USA) and 10% Fetal Bovine Serum (#10270-106, Life technologies, USA).
In this example the inventors further analyzed the metabolism of pregnenolone derivatives using an in vitro test in CHO cells. These cells derived from the ovary have all the enzymes needed to metabolize pregnenolone in down stream steroids.

[2] = tested on: TNF-α; assay: Increase in plasma TNF-alpha induced by LPS; assay type: in vivo, mice; conditions: Mus musculus; mice; compounds 6 mg/kg 15 min before LPS
Description: Trunk blood was collected and centrifuged at 3000 rpm for 15 min at 4° C. Plasma was stored at −80° C. until measurement of TNFα was carried out. Plasma TNFα levels were assessed using an ELISA kit, following the manufacturer's instructions (Fisher Scientific, Catalog #E6473C).
In this example the inventors further analyzed the ability of pregnenolone to inhibit the effects of CB1 activation in the context of inflammation and fibrosis. […] TNF-alpha is one of the cellular responses to inflammatory stimuli more involved in promoting fibrosis.
(§2) Other pregnenolone derivatives (Table 4) for which the metabolism in downstream active steroids was reduced were tested for their ability to inhibit: 1. effects of the THC-induced cannabinoid tetrade (decrease in body temperature and in locomotor activity, (THC 10 mg/kg, compounds 6 mg/kg 15-30 min before THC) that is recognized as a sound method to evaluate the activation of the CB1 receptor; 2. THC-induced increase in food intake a typical effect of CB1 activation (THC between 0.5 and 1 mg/kg, compounds between 2 and 4 mg/kg 30 min before THC); 3. the increase in TNFalpha induced by LPS, another effects typical of CB1 […] (compounds 6 mg/kg 15 min before LPS). For each compound and each test independent groups of animals were used (at least n=6 per compound/per test).

[3] = Allopregnanolone and epiallopregnanolone in nucleus accumbens after high dose injection (GC/MS); assay type: in vivo, Wistar rats; conditions: 50 mg/kg; 30 min after the injections
Description: The capacity of a compound of the invention to be or not to be converted into active pregnenolone downstream derivatives may be evaluated by administering this compound, for example by injecting 50 mg/kg, to a rat, sacrificing the rat 30 min later, measuring the concentration of allopregnanolone and epiallopregnanolone in nucleus accumbens of rat by GC/MS and comparing these concentrations to allopregnanolone and epiallopregnanolone in a rat whose has been injected only a vehicle or pregnenolone.
The concentrations of allopregnanolone and epiallopregnanolone were measured in nucleus accumbens of individual animal by GC/MS 30 min after the injections.

[4] = target: T1, CB1 receptor (Mus musculus, UniProt P47746); assay: THC-induced increase in food intake in mice; assay type: in vivo; set-up: tissue Charles River Laboratories (France) (animals); host or cells: living mice, whole animal; conditions: for effect on THC-induced increase in food intake (hyperphagia) in mice: 24 h-food deprived C57B1/6 mice, THC 1 mg/kg, compound 2 mg/kg sc; for % Inhibition of THC-Induced food intake: mice, THC between 0.5 and 1 mg/kg, compounds between 2 and 4 mg/kg 30 min before THC
Description: (§3) Food intake was evaluated by measuring consumption of food in the home cages of the animals. For each animal, 50-100 g of standard laboratory chow (U.A.R., France) was placed in the cleaned home cage. The remaining amount of food was weighted 1 h later and the amount of food consumed calculated.
as §2

[5] = target: T1, CB1 receptor; assay: Food intake in 24 h-food deprived mice (fasting/refeeding); assay type: in vivo, C57B1/6 mice; set-up: tissue Charles River Laboratories (France) (animals); host or cells: living mice, whole animal; conditions: no THC; for first statistically significant dose for decrease of food intake: food-deprived (food-restricted) mice; for effect on food intake in 24 h-food deprived mice: food intake over 1 h
[6] = target: T2, CB1 receptor (Rattus norvegicus, UniProt P20272); assay: THC-induced increase in food intake in ad libitum fed Wistar rats; assay type: in vivo; set-up: tissue Charles River Laboratories (France) (animals); host or cells: living Wistar rats, whole animal; conditions: THC 0.5 mg/kg; 17-methylpregnenolone 8 mg/kg sc
Description: as §3

[7] = target: T1, CB1 receptor; assay: THC-induced cannabinoid tetrad (body temperature, locomotor activity, catalepsy, analgesia); assay type: in vivo, mice; set-up: tissue Charles River Laboratories (France) (animals); host or cells: living mice, whole animal; conditions: mice; THC 10 mg/kg; compounds 6 mg/kg 15-30 min before THC
[8] = tested on: GABA-A receptors; assay: GABA-A receptors-mediated mIPSC in nucleus accumbens principal neurons; assay type: cell-based, mouse
Description: GABA-A receptors-mediated currents: mIPSC were recorded in the presence of the AMPAR and NMDAR antagonists (DNQX 20 μM and AP-5 50 μM, respectably). mEPSC-mIPSC analysis: Typically, after breaking in, cells were left to equilibrate for 20 minutes and the subsequent 10 minutes recording of mEPSC-mIPSC was used to analysis. mEPSC-mIPSC were detected using a template generated from averaging several typical events (Clampfit 10, Molecular Devices). The template was slid along the data trace one point at a time. At each position, the template was optimally scaled and offset to fit the data. A lower-amplitude threshold of 7 pA and 10 pA were applied for mEPSC and mIPSC, respectably, equivalent to 2.5SD of baseline noise. For each cell, the kinetics of mEPSC-mIPSC was measured from the average event using Clampfit 10. To estimate decay times, a two exponentials curve was fitted between 5 and 95% of the decay phase of the current given by the following equation: y(t)=A1·e^(−t/τ1)+A2·e^(−t/τ2), where A is the amplitude, t is the time and τ is the decay time constant. The weighted tau was then calculated.
In order to evaluate the effect of pregnenolone on the function of post-synaptic GABA we recorded mIPSC and compared its amplitude and decay time between groups. We observed that mIPSC amplitude and decay time were similar between controls (amplitude: 17.9±0.8 pA; decay time: 11.1±0.3 ms) and slices pre-treated with pregnenolone (100 nM and 1 μM, respectively; amplitude: 17.3±0.4 pA, 15.9±0.4 pA; decay time: 10.2±0.4 ms, 10.8±0.5 ms).

[9] = target: T2, CB1 receptor; assay: Pregnenolone concentrations in the brain after drugs of abuse and CB1 ligands (GC/MS); assay type: in vivo, Wistar rats; set-up: tissue Charles River Laboratories (France) (animals); host or cells: living Wistar rats, whole animal; conditions: rats, n=6-12 per group
Description: as §1
In this example the inventors analyzed the effects of the injection of the principal drugs of abuse on the production of pregnenolone in male Wistar rats. […] For example, in the brain, starting from pregnenolone two parallel enzymatic cascades allow producing on one hand allopregnanolone and its stereoisomer epiallopregnanolone and on the other testosterone and its metabolite DHT. These brain steroids were quantified using GC-MS, the only technique able to differentiate their subtle structural differences. […] Concentrations of neurosteroids were analyzed 15, 30 and 120 min after the injection in several ascending brain structure, the ventral midbrain the hypothalamus, the striatal complex and the frontal cortex.
The example provides data obtained in the plasma and in several brain structures: frontal cortex (FCX); nucleus accumbens (ACC); striatum (STR); hypothalamus (HYP).
The effects of THC in the brain are mediated by a family of G-protein-coupled seven membrane receptors (GCPR) and principally by the CB1 and CB2 receptors.

T2 sequence (P20272 whole entry): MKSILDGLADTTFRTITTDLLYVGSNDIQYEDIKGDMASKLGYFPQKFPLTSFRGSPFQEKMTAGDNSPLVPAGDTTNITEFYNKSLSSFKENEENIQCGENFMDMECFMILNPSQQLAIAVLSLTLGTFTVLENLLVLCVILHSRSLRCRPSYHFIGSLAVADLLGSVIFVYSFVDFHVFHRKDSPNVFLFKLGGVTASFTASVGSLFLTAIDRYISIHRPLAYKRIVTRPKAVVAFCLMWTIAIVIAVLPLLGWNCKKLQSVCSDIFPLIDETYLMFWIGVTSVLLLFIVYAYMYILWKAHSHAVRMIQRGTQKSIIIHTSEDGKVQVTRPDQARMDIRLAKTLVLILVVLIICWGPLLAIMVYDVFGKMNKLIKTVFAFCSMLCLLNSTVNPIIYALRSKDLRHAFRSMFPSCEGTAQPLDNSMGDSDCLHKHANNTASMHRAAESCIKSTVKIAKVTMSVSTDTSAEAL
T1 sequence (P47746 whole entry): as the sequence (P20272 whole entry) above, with E95D counted along it

| Compound | metabolism in downstream active steroids (Reduced metabolism / Metabolized) [1] | inhibition in vivo at 6 mg/kg [2] | production of allopregnanolone and epiallopregnanolone in nucleus accumbens [3] | effect on THC-induced increase in food intake (hyperphagia) in mice [4] | % Inhibition of THC-Induced food intake [4] | first statistically significant dose for decrease of food intake [5] | effect on food intake in 24 h-food deprived mice [5] | effect on increase in food intake induced by THC in ad libitum fed Wistar rats [6] | also measured |
| --- | --- | --- | --- | --- | --- | --- | --- | --- | --- |
| CC(=O)C1CCC2C3CC=C4C[C@@H](F)CC[C@]4(C)C3CC[C@]12C (stereo partly drawn) [Compound 1, 3β-Fluoropregnenolone] | Reduced metabolism | 58% | None of the modified pregnenolone derivatives | decreased THC-induced hyperphagia | ≥100%, P < 0.01 | 6 mg/kg | dose-dependently decreased food intake | non statistically significant trend to decrease |  |
| CC(=O)[C@@]1(C)CCC2C3CC=C4C[C@@H](O)CC[C@]4(C)C3CC[C@@]21C (stereo partly drawn) [Compound 2, 17α-Methylpregnenolone] | Reduced metabolism | 60% | None of the modified pregnenolone derivatives | decreased THC-induced hyperphagia | ≥100%, P < 0.001 | 4 mg/kg | dose-dependently decreased food intake | significantly reduced; also recorded: decrease significantly the increase in food intake induced by THC in rats | % Inhibition temperature decrease [7]: 43%, P < 0.001; % increase in motor activity [7]: 240%, P < 0.01; dose inhibiting THC-induced increase in food-intake (first effective dose) ([4]; dose response in 24 h-food deprived mice, 0.5 mg/kg dose was ineffective): 1 mg/kg |
| CC(=O)[C@@]1(C)CCC2C3CC=C4C[C@@H](F)CC[C@]4(C)C3CC[C@@]21C (stereo partly drawn) [Compound 3, 3β-Fluoro-17α-methylpregnenolone] | Reduced metabolism |  | None of the modified pregnenolone derivatives | decreased THC-induced hyperphagia | ≥100%, P < 0.01 | 6 mg/kg | dose-dependently decreased food intake | non statistically significant trend to decrease |  |
| CC(=O)[C@H]1CCC2C3CC[C@@H]4C[C@@H](O)CC[C@]4(C)C3CC[C@@]21C (stereo partly drawn) [Compound 46, 5α-Pregnan-3α-ol-20-one (Allopregnanolone), reference compound] | Metabolized |  |  |  |  |  |  |  | mIPSC amplitude ([8]; slices pre-treated with 100 nM): 15.9±0.5 pA; mIPSC decay time ([8]; slices pre-treated with 100 nM): 13.6 ± 0.7 ms; mIPSC amplitude ([8]; slices pre-treated with 1 μM): 20.2±1.2 pA; mIPSC decay time ([8]; slices pre-treated with 1 μM): 22.7 ± 2.3 ms |
| CC(=O)[C@H]1CCC2C3CC[C@@H]4C[C@@H](O)CC[C@]4(C)C3CC[C@@]21C (stereo partly drawn) [Compound 77, 5β-Pregnan-3β-ol-20-one (Epipregnanolone)] | Reduced metabolism | 76% |  |  | ≥100%, P < 0.01 |  |  |  | % Inhibition temperature decrease [7]: 70%, P < 0.0001; % increase in motor activity [7]: 177%, P < 0.02 |
| CCCCCCC(C)(C)c1cc(O)c2c(c1)OC(C)(C)[C@@H]1CC=C(CO)C[C@@H]21 [HU210] |  |  |  |  |  |  |  |  | effect of CB1/CB2 agonists on pregnenolone concentrations [9]: induced a significant increase in pregnenolone |
| CCCC(C)(C)c1ccc2c(c1)OC(C)(C)[C@@H]1CC=C(C)C[C@@H]21 [JWH, 133] |  |  |  |  |  |  |  |  | effect of CB1/CB2 agonists on pregnenolone concentrations [9]: much lower and not significant effects |
